The values below come from PubChem BioAssay AID256 (DTP/NCI, 2004).

Several values for one entry are separate records, joined by “and”; a condition that tells them apart may be missing. Equal entries are not always repeated. Inconclusive results and toxic doses are left out.

This experiment has as its system CD2F1 mice, L1210 leukemia ip, survival T/C. Description: NCI In Vivo Anticancer Drug Screen. Data for tumor model L1210 Leukemia (intraperitoneal) in CD2F1 (CDF1) mice. Particulars: endpoint: mean survival time, higher = longer survival. In outline:
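Mice carrying a transplanted tumor received test compound or vehicle alone. The value is the measurement in the treated group divided by that in the vehicle-treated control group.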

Setting [1] is: dose: 12.5 mg/kg/injection, schedule: Q04DX003 (ip), vehicle: saline with Tween-80.
Setting [2] is: dose: 25.0 mg/kg/injection, schedule: Q04DX003 (ip), vehicle: saline with Tween-80.
Where [3] appears, read: dose: 50.0 mg/kg/injection, schedule: Q04DX003 (ip), vehicle: saline with Tween-80.
[4] abbreviates: dose: 100.0 mg/kg/injection, schedule: Q04DX003 (ip), vehicle: saline with Tween-80.
Setting [5] is: dose: 200.0 mg/kg/injection, schedule: Q04DX003 (ip), vehicle: saline with Tween-80.
The mark [6] stands for this setting: dose: 400.0 mg/kg/injection, schedule: Q04DX003 (ip), vehicle: saline with Tween-80.
[7] abbreviates: dose: 100.0 mg/kg/injection, schedule: Q04DX002 (ip), vehicle: saline with Tween-80.
Where [8] appears, read: dose: 200.0 mg/kg/injection, schedule: Q04DX002 (ip), vehicle: saline with Tween-80.
Setting [9] is: dose: 25.0 mg/kg/injection, schedule: Q01DX009 (ip), vehicle: saline with Tween-80.
The mark [10] stands for this setting: dose: 50.0 mg/kg/injection, schedule: Q01DX009 (ip), vehicle: saline with Tween-80.

Regarding `CN(CC[NH-])CC[NH-].[I][Pt]`, the T/C under setting [1] was 100 % of control; the T/C under setting [2] is 94 % of control; the T/C under setting [3] is 98 % of control; the T/C under setting [4] is 100 % of control; the T/C under setting [5] is 94 % of control.

For `Nc1nc(=O)n(C2OC(CO)C(O)C2O)c2nc[nH]c12` (configuration not stated), the T/C reads like this: (dose: 6.25 mg/kg/injection, schedule: Q01DX005 (ip), vehicle: water) 98 % of control; (dose: 12.5 mg/kg/injection, schedule: Q01DX005 (ip), vehicle: water) 90 % of control; (dose: 25.0 mg/kg/injection, schedule: Q01DX005 (ip), vehicle: water) 88 % of control; (dose: 50.0 mg/kg/injection, schedule: Q01DX005 (ip), vehicle: water) 92 % of control and 93 % of control; (dose: 100.0 mg/kg/injection, schedule: Q01DX005 (ip), vehicle: water) 87 % of control and 90 % of control.

For `S=C(NCc1ccccc1)NCc1ccccc1`, the T/C under setting [4] is 108 % of control, the T/C under setting [5] was 100 % of control and the T/C under setting [6] is 102 % of control.

`O=C1C=C(c2ccccc2)C(O)(c2ccccc2)/C1=C/c1ccccc1` (configuration not stated): the T/C was 87 % of control under setting [7] and 88 % of control under setting [8].

Take `OCC1OC(c2nnc3c4ccccc4cnn23)C(O)C1O` (configuration not stated): the T/C by setting is: (dose: 10.94 mg/kg/injection, schedule: Q01DX005 (ip), vehicle: water) 100 % of control; (dose: 11.25 mg/kg/injection, schedule: Q01DX005 (ip), vehicle: water) 96 % of control; (dose: 21.88 mg/kg/injection, schedule: Q01DX005 (ip), vehicle: water) 94 % of control; (dose: 22.5 mg/kg/injection, schedule: Q01DX005 (ip), vehicle: water) 94 % of control; (dose: 43.75 mg/kg/injection, schedule: Q01DX005 (ip), vehicle: water) 93 % of control; (dose: 45.0 mg/kg/injection, schedule: Q01DX005 (ip), vehicle: water) 90 % of control. For the same molecule, the T/C is 94 % of control (dose: 87.5 mg/kg/injection, schedule: Q01DX005 (ip), vehicle: water); 96 % of control (dose: 90.0 mg/kg/injection, schedule: Q01DX005 (ip), vehicle: water); 93 % of control (dose: 175.0 mg/kg/injection, schedule: Q01DX005 (ip), vehicle: water); 94 % of control (dose: 180.0 mg/kg/injection, schedule: Q01DX005 (ip), vehicle: water).

For `C=CC[n+]1ccc2ccccc2c1`, for the setting “dose: 100.0 mg/kg/injection, schedule: Q04DX003 (ip), vehicle: saline sonified”, the T/C is 97 % of control.

In the case of `O=C1C(=O)C(Cl)=C(Cl)C(Cl)=C1Cl`, the T/C was 96 % of control (dose: 12.5 mg/kg/injection, schedule: Q01DX009 (ip), vehicle: saline with Tween-80); 93 % of control under setting [1]; 92 % of control under setting [9]; 104 % of control under setting [2]; 104 % of control under setting [3].

On to `Nc1c(Cl)c(Cl)nc(C(=O)O)c1Cl`, for which the T/C by setting is: (dose: 25.0 mg/kg/injection, schedule: Q01DX009 (ip), vehicle: Klucel (hydroxypropylcellulose) (HPC)) 98 % of control; under setting [9], 100 % of control; (dose: 50.0 mg/kg/injection, schedule: Q01DX009 (ip), vehicle: Klucel (hydroxypropylcellulose) (HPC)) 98 % of control; under setting [10], 94 % of control; (dose: 50.0 mg/kg/injection, schedule: Q01DX009 (ip), vehicle: saline) 97 % of control; (dose: 100.0 mg/kg/injection, schedule: Q01DX009 (ip), vehicle: Klucel (hydroxypropylcellulose) (HPC)) 90 % of control. Also, the T/C (dose: 100.0 mg/kg/injection, schedule: Q01DX009 (ip), vehicle: saline with Tween-80) was 97 % of control; the T/C (dose: 100.0 mg/kg/injection, schedule: Q01DX009 (ip), vehicle: saline) is 97 % of control; the T/C (dose: 200.0 mg/kg/injection, schedule: Q01DX009 (ip), vehicle: Klucel (hydroxypropylcellulose) (HPC)) was 100 % of control; the T/C (dose: 200.0 mg/kg/injection, schedule: Q01DX009 (ip), vehicle: saline with Tween-80) is 97 % of control; the T/C (dose: 200.0 mg/kg/injection, schedule: Q01DX009 (ip), vehicle: saline) was 101 % of control; the T/C (dose: 400.0 mg/kg/injection, schedule: Q01DX009 (ip), vehicle: saline with Tween-80) was 101 % of control.

As for `CC(C(=O)c1cccs1)=C(C(F)(F)F)C(F)(F)F`, the T/C by setting is: (dose: 6.25 mg/kg/injection, schedule: Q01DX009 (ip), vehicle: other) 100 % of control; (dose: 12.5 mg/kg/injection, schedule: Q01DX009 (ip), vehicle: other) 94 % of control; (dose: 25.0 mg/kg/injection, schedule: Q01DX009 (ip), vehicle: other) 100 % of control; (dose: 50.0 mg/kg/injection, schedule: Q01DX009 (ip), vehicle: other) 97 % of control.

On to `Cc1oc([N+](=O)[O-])c(C)c1C(=O)O`, for which the T/C reads like this: (dose: 50.0 mg/kg/injection, schedule: Q04DX002 (ip), vehicle: saline with Tween-80) 101 % of control; under setting [7], 97 % of control; under setting [8], 104 % of control.

Turning to `Cc1ccc(NC(=O)CI)cc1`, the T/C (dose: 100.0 mg/kg/injection, schedule: Q04DX002 (ip), vehicle: other) was 102 % of control.

Take `c1ccc(C2Nc3ccccc3NC2c2ccccc2)cc1` (configuration not stated): the T/C (dose: 100.0 mg/kg/injection, schedule: Q01DX001 (ip), vehicle: saline with Tween-80) is 95 % of control; the T/C (dose: 200.0 mg/kg/injection, schedule: Q01DX001 (ip), vehicle: saline with Tween-80) was 97 % of control; the T/C (dose: 400.0 mg/kg/injection, schedule: Q01DX001 (ip), vehicle: saline with Tween-80) was 103 % of control.

As to `S=C(Nc1ccccc1)NC1CCCCC1`, the T/C by setting is: under setting [4], 100 % of control; under setting [5], 102 % of control; under setting [6], 97 % of control.

Take `CCCCCCCCCCCCOC(=O)C[n+]1cccc(C(=O)Nc2ccc(Cl)cc2)c1`: the T/C under setting [9] is 101 % of control, the T/C under setting [10] was 96 % of control and the T/C under setting [4] is 103 % of control.

For the molecule `CCCC(Sc1nc(N)nc2nc[nH]c12)C(=O)O` (configuration not stated), the T/C is, setting by setting: under setting [2], 103 % of control; under setting [3], 110 % of control; under setting [4], 118 % of control; (dose: 150.0 mg/kg/injection, schedule: Q04DX003 (ip), vehicle: saline with Tween-80) 151 % of control; (dose: 300.0 mg/kg/injection, schedule: Q04DX003 (ip), vehicle: saline with Tween-80) 156 % of control; under setting [6], 168 % of control.

For the molecule `[Cl][Pt+2][Cl].[NH-]c1ccc(S(=O)(=O)Nc2ccccn2)cc1.[NH-]c1ccc(S(=O)(=O)Nc2ccccn2)cc1`, the T/C is 97 % of control under setting [2]; 97 % of control under setting [3]; 96 % of control under setting [4]; 102 % of control under setting [5]; 107 % of control under setting [6].

`CN(C)N=Nc1ccc(SC#N)cc1C(N)=O`: the T/C reads like this: (dose: 18.8 mg/kg/injection, schedule: Q01DX009 (ip), vehicle: Klucel (hydroxypropylcellulose) (HPC)) 93 % of control and 103 % of control; (dose: 37.5 mg/kg/injection, schedule: Q01DX009 (ip), vehicle: Klucel (hydroxypropylcellulose) (HPC)) 97 % of control and 106 % of control; (dose: 75.0 mg/kg/injection, schedule: Q01DX009 (ip), vehicle: Klucel (hydroxypropylcellulose) (HPC)) 107 % of control and 108 % of control; (dose: 150.0 mg/kg/injection, schedule: Q01DX009 (ip), vehicle: Klucel (hydroxypropylcellulose) (HPC)) 88 % of control and 110 % of control.

For the molecule `Cn1cnc([N+](=O)[O-])c1Sc1nc(N)nc2nc[nH]c12`, the T/C (dose: 5.0 mg/kg/injection, schedule: Q03DX003 (ip), vehicle: Klucel (hydroxypropylcellulose) (HPC)) is 153 % of control; the T/C (dose: 10.0 mg/kg/injection, schedule: Q01DX007 (ip), vehicle: Klucel (hydroxypropylcellulose) (HPC)) is 122 % of control; the T/C (dose: 10.0 mg/kg/injection, schedule: Q03DX003 (ip), vehicle: Klucel (hydroxypropylcellulose) (HPC)) is 160 % of control; the T/C (dose: 20.0 mg/kg/injection, schedule: Q01DX007 (ip), vehicle: Klucel (hydroxypropylcellulose) (HPC)) is 117 % of control; the T/C (dose: 20.0 mg/kg/injection, schedule: Q03DX003 (ip), vehicle: Klucel (hydroxypropylcellulose) (HPC)) was 154 % of control.

Turning to `O=C(CCCl)OCCCl`, the T/C reads like this: under setting [4], 102 % of control; under setting [5], 92 % of control.
